Reference: article PMC2866539, “HLA Class I Binding 9mer Peptides from Influenza A Virus Induce CD4^+ T Cell Responses” (PLoS ONE, 2010)
Where no end group is shown, it is not given here.

Legend:
freshly harvested PBMC = conditions: cited from earlier work
[1] = system: PBMC from HLA-matched donors; type: cell-based, human
[2] = system: PBMC from responding donors; type: cell-based, human
DRA1*0101/DRB1*0401 = biological target: T1, DRA1*0101/DRB1*0401 (Homo sapiens, UniProt P01903+P01911, A100K/A169T/F76Y/I96L/K127E/L162R/M171V/N62H/P40V/Q125Y/R42H/S133A/S149N/S66Y/V115G/V209L/W38E); assay: biochemical; type: binding
T1 construct: made in house

DRA1*0101/DRB3*0301 = DRA1*0101/DRB3*0301 (Homo sapiens, UniProt P01903+P79483, A169T/A212P/D57E/G115V/L67V/Q178H/R103Q/R40L/Y55F); assay: biochemical; type: binding
DRA1*0101/DRB3*0301, sequence (P01903 26-254 limits assumed): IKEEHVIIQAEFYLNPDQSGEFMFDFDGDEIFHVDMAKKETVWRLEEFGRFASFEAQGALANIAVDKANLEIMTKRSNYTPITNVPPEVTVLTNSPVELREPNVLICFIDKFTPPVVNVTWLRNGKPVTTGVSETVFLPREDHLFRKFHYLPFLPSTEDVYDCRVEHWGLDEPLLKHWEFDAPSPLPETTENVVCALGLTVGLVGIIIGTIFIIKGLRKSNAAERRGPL
DRA1*0101/DRB3*0301, sequence (P79483 30-266 R40L/Y55F/D57E/L67V/R103Q/G115V/A169T/Q178H/A212P limits assumed): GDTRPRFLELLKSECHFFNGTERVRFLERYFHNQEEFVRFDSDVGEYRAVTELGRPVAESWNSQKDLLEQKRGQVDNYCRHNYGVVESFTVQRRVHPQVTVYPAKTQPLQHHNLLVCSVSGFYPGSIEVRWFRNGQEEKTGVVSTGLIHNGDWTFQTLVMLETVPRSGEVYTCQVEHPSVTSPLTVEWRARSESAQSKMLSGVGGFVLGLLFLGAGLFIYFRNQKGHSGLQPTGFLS

DRA1*0101/DRB5*0101 = biological target: T2, DRA1*0101/DRB5*0101 (Homo sapiens, UniProt P01903+Q30154); assay: biochemical; type: binding
T2 construct: made in house

DRA1*0101/DRB1*0302 = DRA1*0101/DRB1*0302 (Homo sapiens, UniProt P01903+P01911, A100K/A102G/A103R/A169T/D57E/F76Y/I96L/K41T/L162R/M171V/P40S/Q125H/Q178H/Q39Y/R42S/S66N/T106N/T262R/V115G/W38E/Y61H); assay: biochemical; type: binding
DRA1*0101/DRB1*0101 = biological target: T3, DRA1*0101/DRB1*0101 (Homo sapiens, UniProt P01903+P01911, A100R/D57E/F55L/F60I/F76Y/I96L/L162R/M171V/P40L/Q125E/R42F/V115G/Y59C); assay: biochemical; type: binding
T3 construct: made in house

DPA1*0103/DPB1*0401 = biological target: T4, DPA1*0103/DPB1*0401 (Homo sapiens, UniProt P04440+P20036); assay: biochemical; type: binding
T4 construct: made in house
T4 sequence (P20036 32-222 limits assumed): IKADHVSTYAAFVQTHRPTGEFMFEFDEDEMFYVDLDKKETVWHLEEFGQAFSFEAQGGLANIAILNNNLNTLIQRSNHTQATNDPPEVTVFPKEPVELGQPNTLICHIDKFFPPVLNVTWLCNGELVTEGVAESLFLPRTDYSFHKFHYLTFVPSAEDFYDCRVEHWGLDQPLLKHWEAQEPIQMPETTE
T4 sequence (P04440 30-225 limits assumed): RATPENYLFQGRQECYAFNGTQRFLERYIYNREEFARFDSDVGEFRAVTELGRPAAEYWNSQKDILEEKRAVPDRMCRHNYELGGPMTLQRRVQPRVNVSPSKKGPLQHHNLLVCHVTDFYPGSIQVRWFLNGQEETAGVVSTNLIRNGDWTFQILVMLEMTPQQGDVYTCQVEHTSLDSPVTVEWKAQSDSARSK

DRA1*0101/DRB1*0301 = DRA1*0101/DRB1*0301 (Homo sapiens, UniProt P01903+P01911, A100K/A102G/A103R/A169T/F55Y/I96L/K41T/L162R/M171V/P40S/Q125H/Q178H/Q39Y/R42S/S66N/T106N/T262R/W38E/Y61H); assay: biochemical; type: binding
DRA1*0101/DRB1*0301, sequence (P01903 26-254 limits assumed, other chains not shown): as the sequence (P01903 26-254 limits assumed) above

HLA-B7 = HLA-B7 (Homo sapiens, UniProt P01889); assay: biochemical; type: binding
HLA-B7, sequence (P01889 25-299): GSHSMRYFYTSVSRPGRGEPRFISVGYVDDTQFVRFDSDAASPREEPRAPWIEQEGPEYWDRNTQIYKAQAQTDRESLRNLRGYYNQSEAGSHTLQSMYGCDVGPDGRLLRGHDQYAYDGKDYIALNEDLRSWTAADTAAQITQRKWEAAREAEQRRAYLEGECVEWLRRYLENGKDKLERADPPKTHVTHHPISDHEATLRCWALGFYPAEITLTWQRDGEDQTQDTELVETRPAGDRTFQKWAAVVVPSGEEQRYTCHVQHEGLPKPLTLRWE
HLA-B7, sequence (P61769 21-119, further chain): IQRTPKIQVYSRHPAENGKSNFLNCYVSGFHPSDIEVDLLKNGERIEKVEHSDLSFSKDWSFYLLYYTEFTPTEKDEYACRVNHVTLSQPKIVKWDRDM

HLA-A3 = HLA-A3 (Homo sapiens, UniProt P04439); assay: biochemical
HLA-A3, sequence (P04439 25-299): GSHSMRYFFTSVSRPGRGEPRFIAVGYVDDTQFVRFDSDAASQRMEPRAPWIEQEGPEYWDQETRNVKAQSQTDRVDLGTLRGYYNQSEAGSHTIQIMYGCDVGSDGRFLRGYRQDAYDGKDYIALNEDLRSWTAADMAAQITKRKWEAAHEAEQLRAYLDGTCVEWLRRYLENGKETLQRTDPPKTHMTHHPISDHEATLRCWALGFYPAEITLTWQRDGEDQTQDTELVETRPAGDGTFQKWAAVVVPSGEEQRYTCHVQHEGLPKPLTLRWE
HLA-A3, sequence (P61769 21-119, further chain): as the sequence (P61769 21-119, further chain) above

Row | Sequence | antigenicity in ELISPOT of Assarsson et al (freshly harvested PBMC) | +Peptide, IFNγ spot forming cell numbers [1] [per 10^5 PBMC] | SFC/1×10^5 PBMC+Peptide, IVA12 [2] [SFC/1×10^5 PBMC] | SFC/1×10^5 PBMC+Peptide, Isotype [2] [SFC/1×10^5 PBMC] | SFC/1×10^5 PBMC+Peptide, W6/32 [2] [SFC/1×10^5 PBMC] | Kd (DRA1*0101/DRB1*0401) [µM] | Kd (DRA1*0101/DRB3*0301) [µM] | Kd (DRA1*0101/DRB5*0101) [µM] | Kd (DRA1*0101/DRB1*0302) [µM] | Kd (DRA1*0101/DRB1*0101) [µM] | Kd (DPA1*0103/DPB1*0401) [µM] | Kd (DRA1*0101/DRB1*0301) [µM] | Kd (HLA-B7) [µM] | Kd (HLA-A3) [µM]
1 | DPLVVAASI [PF-146] | failed to show antigenicity | 42±8 | 2±2 | 17±1 | 18±3 |  |  |  |  |  |  |  |  | 
2 | ETIVLLRAF [PF-113] |  |  |  |  |  | > 5 | > 5 | 0.78 | > 5 | 3.73 | > 5 | > 5 |  | 
3 | IAPWYAFAL [PF-154] |  |  |  |  |  | > 5 | > 5 | 1.7 | > 5 | > 5 | > 5 | > 5 |  | 
4 | ILWILDRLF [PF-140] |  | 17±4 | 1±1 | 32±3 | 43±19 |  |  |  |  |  |  |  |  | 
5 | IMLKANFSV [PF-103] |  |  |  |  |  | 1.39 | 0.018 | > 5 | > 5 | 3.43 | > 5 | > 5 |  | 
6 | LMNELGVPF [PF-141] |  |  |  |  |  | > 5 | 4.01 | > 5 | > 5 | > 5 | > 5 | > 5 |  | 
7 | LPFHNVHPL [PF-147] |  |  |  |  |  | > 5 | > 5 | 3.7 | > 5 | > 5 | > 5 | > 5 | 0.006 | 
8 | LPFQNVHPV [PF-150] |  |  |  |  |  | > 5 | > 5 | 1.2 | > 5 | > 5 | > 5 | > 5 | 0.161 | 
9 | LVSLGAISF [PF-148] |  |  |  |  |  | > 5 | > 5 | > 5 | > 5 | 4.34 | > 5 | > 5 |  | 
10 | TIHDRIPHR [PF-116] |  |  |  |  |  |  |  |  |  |  |  |  |  | 0.062
11 | VTIGECPKY [PF-110] |  | 247±13 | 5±3 | 163±28 | 165±4 |  |  |  |  |  |  |  |  | 
12 | YILLKKILSSRFNQM [hypothetical protein 239–253, reference compound] |  |  |  |  |  |  |  | 0.017 |  |  | 0.025 |  |  | 
13 | YKYVKQNTLKLAT [HA306–318, reference compound] |  |  |  |  |  | 0.015 | 0.003 | 0.012 | 0.053 | 0.108 | > 5 | 0.026 |  | 
14 | YPRYPGVRC [PF-145] |  |  |  |  |  |  |  |  |  |  |  |  | 0.011 | 
15 | YVKQNTLKL [PF-152] |  |  |  |  |  | 0.226 | 0.356 | 0.405 | 2.22 | 1.2 | > 5 | > 5 | 0.072 | 
